Patent US12162836B2, “N-acyl-{4-[(4-aryl-phenyl)sulfonylmethyl]piperidine} compounds and their therapeutic use” (Modern Biosciences Limited, priority 2019, dated 2024)

Assays:
[1] = system: collagen-induced arthritis in DBA/1j mice; assay: Mouse Collagen-Induced Arthritis; format: in vivo; details: 10 mg/kg/day, once daily for 14 days, oral gavage; arthritic index vs control
Procedure: Seven- to eight-week-old male DBA/1j mice were used for all procedures. Animals were housed in groups of 10, and were maintained at 21° C.±2° C. on a 12-hour light/dark cycle with food and water ad libitum. Complete Freund's adjuvant (CFA) was prepared by emulsifying bovine type II collagen at 4 mg/mL with a 4 mg/mL suspension of Mycobacterium tuberculosis H37Ra in Incomplete Freund's Adjuvant (IFA) (0.85 mL paraffin oil and 0.15 mL mannide monooleate) in a 1:1 (v/v) ratio. All mice were immunised subcutaneously with 200 μg of bovine type II collagen in CFA. 21 days later, all mice were immunised subcutaneously with 100 μg of bovine type II collagen in IFA. The mice started to develop signs and symptoms of arthritis following the ‘booster’ immunisation.
For macroscopic assessment of arthritis, the following signs were monitored in each paw of each mouse three times per week and summed to generate the Arthritic Index (A1) (the maximum A1 for one animal is 16): • 0=no visible effects of arthritis. • 1=oedema and/or erythema of 1 digit. • 2=oedema and/or erythema of 2 digits. • 3=oedema and/or erythema of more than 2 digits. • 4=severe arthritis of entire paw and digits.
Animals were sorted into treatment groups with a mean arthritic index of 2.5 and then dosed once daily for 14 days with compound: by oral gavage for test compounds, or by subcutaneous injection at a dose of 10 mg/kg for the positive control, etanercept. After completion of the experiment, the mice were sacrificed.
The data were analysed by generating an average of the arthritic index across each treatment group. The mean arthritic index was then compared to the arthritic index of control (untreated) animals using the following formula to generate a percentage inhibition of disease.

[2] = system: CYP1A2, CYP2C9, CYP2C19, CYP2D6 and CYP3A4; format: in vitro ADME, human
Procedure: The ability of test compounds to inhibit five of the most relevant cytochrome P450 enzymes was measured by determination of the activity of cytochrome P450 enzymes in recombinant cytochrome preparations, called Bactosomes (Cypex Ltd, Dundee, Scotland UK DD2 1 NH), in the presence of a specific probe substrate. Bactosomes are a highly efficient and cost-effective source of recombinant CYP450s which have a higher specific activity of enzyme compared to other sources, such as liver microsomes. […] The following CYP450 isoforms were assayed: CYP1A2, CYP2C9, CYP2C19, CYP2D6 and CYP3A4. The study of CYP450 inhibition potential in Bactosomes is accepted as a valuable model permitting rapid prediction of potential drug-drug interactions in vivo (see, e.g., Weaver et al., 2003).
Bactosomes were obtained from a commercial source (Cypex, Scotland, UK). Test compounds were incubated with Bactosomes at 6 concentrations. Samples were incubated for 10 minutes, after which the reaction was stopped and the samples analysed by LC-MS/MS Multiple Reaction Monitoring (MRM) for the presence/amount of substrate probe. […]

[3] = system: human, rat (Sprague Dawley) and dog (Beagle) hepatocytes; assay: Metabolite identification (biaryl metabolite detection) in cryopreserved hepatocytes; format: in vitro ADME; details: primary hepatocyte incubations, 10 μM, final time point (60 minutes)
Procedure: The formation of metabolites in humans, rats and dogs was assessed to determine the propensity of the compounds to form a biaryl metabolite.
In vitro studies on the metabolism of drugs are usually performed using liver preparations such as isolated perfused livers, liver slices, liver homogenates, isolated cryopreserved hepatocytes, subcellular liver fractions (S9, cytosol, and microsomes), or recombinant metabolizing enzymes overexpressed on non-expressing cell systems, particularly CYP enzymes. Cryopreserved hepatocytes contain all the enzymes and co-factors needed for phase I and phase II drug metabolism, making them an excellent in vitro model for assessment of drug metabolic stability and metabolite profiling.
Cryopreserved human, rat (Sprague Dawley) and dog (Beagle) hepatocytes were revived from liquid nitrogen and plated at a seeding density of 2×10^6 cells/mL (>95% viability). Following a 15 minute incubation at 37° C. a sample was removed for a zero (0) minute time point assessment. […]
All samples were processed for analysis by protein precipitation using 500 μL ice-cold acetonitrile and analysed with a fit-for-purpose LC-MS/MS method.
At the completion of the study, the results were expressed as detection of the biaryl metabolite at the final time point.

[4] = biological target: hERG ion channel (Homo sapiens (Human), UniProt Q12809); assay: hERG Ion Channel binding assay (3H astemizole displacement)
Chain of hERG ion channel (Q12809 whole entry): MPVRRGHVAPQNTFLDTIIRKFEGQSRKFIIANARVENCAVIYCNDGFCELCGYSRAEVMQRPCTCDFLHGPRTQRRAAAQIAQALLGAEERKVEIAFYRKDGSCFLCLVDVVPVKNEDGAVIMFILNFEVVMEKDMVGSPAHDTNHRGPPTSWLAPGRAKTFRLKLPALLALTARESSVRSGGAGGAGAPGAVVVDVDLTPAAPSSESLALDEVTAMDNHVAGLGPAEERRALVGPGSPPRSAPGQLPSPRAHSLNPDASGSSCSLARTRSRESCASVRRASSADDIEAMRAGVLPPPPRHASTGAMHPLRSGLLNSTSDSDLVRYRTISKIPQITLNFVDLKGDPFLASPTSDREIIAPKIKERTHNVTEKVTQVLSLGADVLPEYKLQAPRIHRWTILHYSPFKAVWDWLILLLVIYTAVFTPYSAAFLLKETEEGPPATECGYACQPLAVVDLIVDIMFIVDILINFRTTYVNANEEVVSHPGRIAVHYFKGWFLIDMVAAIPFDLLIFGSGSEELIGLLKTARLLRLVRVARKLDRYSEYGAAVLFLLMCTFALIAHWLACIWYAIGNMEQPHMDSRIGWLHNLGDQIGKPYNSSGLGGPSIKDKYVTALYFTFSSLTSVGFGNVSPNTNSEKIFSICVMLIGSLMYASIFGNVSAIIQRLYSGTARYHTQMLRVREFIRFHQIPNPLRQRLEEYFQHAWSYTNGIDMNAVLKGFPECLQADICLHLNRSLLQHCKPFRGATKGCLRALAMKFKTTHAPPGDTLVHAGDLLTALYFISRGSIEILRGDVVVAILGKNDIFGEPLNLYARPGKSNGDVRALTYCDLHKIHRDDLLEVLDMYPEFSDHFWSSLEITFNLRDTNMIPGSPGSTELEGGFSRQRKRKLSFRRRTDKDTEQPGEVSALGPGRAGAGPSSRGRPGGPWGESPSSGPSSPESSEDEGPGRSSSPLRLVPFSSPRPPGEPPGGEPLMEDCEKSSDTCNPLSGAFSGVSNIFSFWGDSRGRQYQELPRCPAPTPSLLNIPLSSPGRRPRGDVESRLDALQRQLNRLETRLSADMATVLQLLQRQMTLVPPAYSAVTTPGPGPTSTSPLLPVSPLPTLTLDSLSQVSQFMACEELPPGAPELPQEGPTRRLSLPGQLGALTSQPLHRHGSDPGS
Procedure, shortened: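 Membranes from stably transfected hERG-HEK293 cells incubated with 1.5 nM ³H-astemizole ± test compound in HEPES buffer pH 7.4 (0.1% BSA, 5 mM KCl, 130 mM NaCl) at 25° C for 60 min. Bound ligand measured by filtration and scintillation counting; reported as % displacement (0% none, 100% complete).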

Compound	% inhibition of disease [1] [%]	drug-drug interaction liability, CYP450 inhibition profile (in words) [2]	Biaryl metabolite detected? [3]	cardiac safety profile, hERG (in words) [4]
CC1(O)CCC(NS(=O)(=O)c2ccc(-c3ccc(F)cc3F)cc2)CC1 (stereo not shown) [ABD899, reference compound]	77			
CC(=O)N1CCC(CS(=O)(=O)c2ccc(-c3ccc(F)cc3F)cc2)CC1 [NASMP-01, 1-(4-(((2′,4′-Difluoro-[1,1′-biphenyl]-4-yl)sulfonyl)methyl)piperidin-1-yl)ethan-1-one]	64	particularly good profile	No	particularly positive profile
CC(=O)N1CCC(CS(=O)(=O)c2ccc(-c3ccc(C#N)cc3Cl)cc2)CC1 [NASMP-05, 4′-(((1-Acetylpiperidin-4-yl)methyl)sulfonyl)-2-chloro-[1,1′-biphenyl]-4-carbonitrile]		particularly good profile		
CC(=O)N1CCC(CS(=O)(=O)c2ccc(-c3c(F)cccc3F)cc2)CC1 [NASMP-09, 1-(4-(((2′,6′-Difluoro-[1,1′-biphenyl]-4-yl)sulfonyl)methyl)piperidin-1-yl)ethan-1-one]				particularly positive profile
